The values below come from patent publication US9062037B2, “Tazarotene derivatives” (Stiefel Laboratories, Inc., priority 2009, dated 2015).

Data set [1] relates to Reconstructed human epidermis (RHE) tissues. Put plainly: RT-qPCR gene expression of K10, K19, filaggrin, K4 and K13 in reconstructed human epidermis (RHE) cultures. It is filed as cell-based. As to conditions: 72 h, 2.83 mM in OD/10% DMSO, 6 μl. How it is done: Reconstructed human epidermis (RHE) tissues were cultured in-house as previously described by Poumay et al. Briefly, polycarbonate culture inserts (12 mm diameter and 0.4 μm pore size, Millipore) were filled with 150 μL of a suspension containing approximately 5×10^5 primary adult human keratinocytes. The inserts received another 500 μL of keratinocyte culture media and were placed in a 6-well plate (1 insert/well) containing 2.5 mL of RHE Growth Media (Epilife media +1.5 mM CaCl2). RHE cultures were incubated at 37° C. in a humidified atmosphere containing 5% CO2, for 24 hours. Subsequently (on Day 0), RHE cultures were exposed to the air-liquid interface by removing the RHE Growth Media from the top of the cultures, and replacing with 1.5 mL/well of RHE Growth Media containing 50 μg/mL vitamin C. Media was changed every other day until the cultures were dosed with Test Articles. A stock solution of 0.1% tazarotene (2.83 mM at 99.5% purity) in OD/10% DMSO was prepared. For tazarotene benzoate, hydroxytazarotenic acid, keto tazarotenic acid, keto tazarotene, and tazarotene nicotinate, a 10 mg/mL stock solution (in DMSO) was already prepared. From this stock solution, a 2.83 mM working solution (in octyldodecanol) was prepared. All other tested compounds were resuspended in DMSO and OD to obtain a final concentration of 2.83 mM in OD/10% DMSO. On Day 12, the cultures were placed in 60 mm petri dishes containing 3 mL of RHE Growth Media (+VitC). Test articles (6 μl) were applied to triplicate cultures and cultures were incubated at 37° C. for 72 hours. Untreated and OD alone served as negative controls. At the end of the incubation period, the growth media was collected and stored at −20° C. The tissues were cut in half: one half was placed in 10% NBF for histology, and the other half was placed in RNAlater™ solution for RT-qPCR. RNA was isolated and concentrations were determined using a NanoDrop spectrophotometer. In addition to using the same amount of RNA for each sample, data was normalized to internal GAPDH mRNA levels and is expressed as relative quantification (RQ) to untreated controls. RNA extracts from each replicate were amplified using RT-qPCR. The relative gene expression of five biomarkers was determined: Keratin 10, Keratin 19, Filaggrin, Keratin 4, and Keratin 13.
In general terms: In qPCR the cycle at which signal appears reflects the starting amount.

Data set [2] is described as follows: Metabolism in the presence of human skin microsomes. Conditions: human skin microsomes; paraoxon 0, 10 or 100 μM.
Experimental: Hepatic microsomal reactions were carried out in microcentrifuge tubes in the following manner. Human liver microsomes (0.5 or 1.0 mg/ml protein), Test Article (1 or 10 μM), paraoxon (0, 10 or 100 μM), NADPH regenerating system (10 mM glucose-6-phosphate, 1 unit/ml glucose-6-phosphate dehydrogenase, 1 mM NADP^+), magnesium chloride (5 mM) in 0.1 M potassium phosphate buffer, pH 7.4 were incubated at 37° C. in a shaking water bath. Reactions were initiated with the addition of substrate with the exception of the zero-time incubations. The total reaction volume was 0.2 ml. The reactions were incubated for 15, 30, 45 or 60 minutes, terminated with 0.2 ml ice-cold acetonitrile and then placed on ice. For zero-time incubations, ice cold acetonitrile was added to the mixture containing microsomes, along with NADPH regenerating system, magnesium chloride in phosphate buffer and the Test Article. Each time point was carried out in triplicate.
Five time points were chosen, but because of the limitation of human skin microsome supply, each one was carried out in duplicate. Skin microsomal reactions were carried out as described above for hepatic microsomal reactions with the following two exceptions. Firstly, the total reaction volume was 0.1 mL. Secondly, incubations were terminated with 0.1 mL acetonitrile.
Setting [3] is: read-out: K4 Fold Change vs Untreated/OD controls (upregulation).
Setting [4] is: read-out: K13 Fold Change vs Untreated/OD controls (upregulation).
[5] abbreviates: read-out: K19 Fold Change vs Untreated/OD controls (upregulation).
Setting [6] is: human liver microsomes, paraoxon 0, 10 or 100 μM.

Read-outs that look alike come from different tables or passages of the source.

Turning to `CCOC(=O)c1ccc(C#Cc2ccc3c(c2)C(C)(C)CC(OC(=O)C(C)C)S3)nc1` (stereo not drawn) [Compound 20, Ethyl 6-[(2-isobutyryloxy-4,4-dimethyl-3,4-dihydro-2-thiochromen-6-yl)ethynyl]pyridine-3-carboxylate], the fold induction at 2830 µM is 22 in data set [1] (setting [3]), 6 in data set [1] (setting [4]) and 15 in data set [1] (setting [5]).

Take `CCOC(=O)c1ccc(C#Cc2ccc3c(c2)C(C)(C)CC(OC(=O)c2ccccc2O)S3)nc1` (stereo not drawn) [Compound 25, Ethyl 6-[(2-salicylicyl-4,4-dimethyl-3,4-dihydro-2-thiochromen-6-yl)ethynyl]pyridine-3-carboxylate]: the fold induction at 2830 µM in data set [1] (setting [3]) was 103 to 180; in data set [1] (setting [4]), 17; in data set [1] (setting [5]), 23.

Turning to `CCOC(=O)c1ccc(C#Cc2ccc3c(c2)C(C)(C)CC(OC(=O)CO)S3)nc1` (stereo not drawn) [Compound 15, 6-[2-(2-Hydroxy-acetoxy)-4,4-dimethyl-thiochroman-6-ylethynyl]-nicotinic acid ethyl ester], the fold induction at 2830 µM in data set [1] (setting [3]) was 64; in data set [1] (setting [4]) it was 12; in data set [1] (setting [5]), 33 to 43.

In the case of `CCOC(=O)c1ccc(C#Cc2ccc3c(c2)C(C)(C)C[C@@H](OC(=O)c2ccccc2)S3)nc1` [Compound 5, (S)-6-(2-(2-benzoyloxy-4,4-dimethylthiochroman-6-yl)ethynyl) nicotinic acid, ethyl ester], the fold induction at 2830 µM was 45 in data set [1] (setting [3]), 7 in data set [1] (setting [4]) and 8 in data set [1] (setting [5]).

On to `CCOC(=O)c1ccc(C#Cc2ccc3c(c2)C(C)(C)C[C@@H](OC(=O)c2cccnc2)S3)nc1` [Compound 8, (S)-6-[4,4-dimethyl-2-(pyridine-3-carbonyloxy)thiochroman-6-ylethynyl]nicotinic acid ethyl ester], for which the fold induction at 2830 µM in data set [1] (setting [3]) worked out at 35; in data set [1] (setting [4]), 7; in data set [1] (setting [5]), 18.

With `CC/C=C\C/C=C\C/C=C\CCCCCCC(=O)OC1CC(C)(C)c2cc(C#Cc3ccc(C(=O)OCC)cn3)ccc2S1` (stereo not drawn) [Compound 22], the fold induction at 2830 µM in data set [1] (setting [3]) was found to be 38; in data set [1] (setting [4]), 10; in data set [1] (setting [5]) it was 12.

With `CCOC(=O)c1ccc(C#Cc2ccc3c(c2)C(C)(C)CC(=O)S3)nc1` [Compound 12, ethyl 6-((4,4-dimethyl-2-oxothiochroman-6-yl)ethynyl)nicotinate], the results for the fold induction at 2830 µM in data set [1] (setting [3]), in data set [1] (setting [4]) and in data set [1] (setting [5]) were 103 to 180, 15 and 27, respectively.

Consider `CCOC(=O)c1ccc(C#Cc2ccc3c(c2)C(C)(C)CC(OC(=O)CCCCCCCC(=O)OC)S3)nc1` (stereo not drawn) [Compound 28], for which the values for the fold induction at 2830 µM in data set [1] (setting [3]), in data set [1] (setting [4]) and in data set [1] (setting [5]) were 103 to 180, 18 and 30, respectively.

Consider `CC1(C)CC(O)Sc2ccc(C#Cc3ccc(C(=O)O)cn3)cc21` (stereo not drawn) [Compound 10, 6-((2-hydroxy-4,4-dimethylthiochroman-6-yl)ethynyl)nicotinic acid], for which the fold induction at 2830 µM in data set [1] (setting [3]) is 65; in data set [1] (setting [4]), 11; in data set [1] (setting [5]) it was 25.

For the compound `CCOC(=O)c1ccc(C#Cc2ccc3c(c2)C(C)(C)CC(OC(=O)[C@@H](N)C(C)C)S3)nc1` (stereo partly drawn) [Compound 29, 6-[2-((S)-2-Amino-3-methyl-butyryloxy)-4,4-dimethyl-thiochroman-6-ylethynyl]-nicotinic acid ethyl ester], the fold induction at 2830 µM in data set [1] (setting [3]) was 71; in data set [1] (setting [4]) it was 13; in data set [1] (setting [5]) it was 29.

On to `CCCCCCCCCCCC(=O)OC1CC(C)(C)c2cc(C#Cc3ccc(C(=O)OCC)cn3)ccc2S1` (stereo not drawn) [Compound 19], for which the fold induction at 2830 µM in data set [1] (setting [3]) worked out at 19; in data set [1] (setting [4]), 2; in data set [1] (setting [5]), 2.

Consider `CCCC(=O)OC1CC(C)(C)c2cc(C#Cc3ccc(C(=O)OCC)cn3)ccc2S1` (stereo not drawn) [Compound 18, Ethyl 6-[(2-n-butyryloxyl-4,4-dimethyl-3,4-dihydro-2-thiochromen-6-yl)ethynyl]pyridine-3-carboxylate], for which the fold induction at 2830 µM was 60 in data set [1] (setting [3]), 9 in data set [1] (setting [4]) and 22 in data set [1] (setting [5]).

Turning to `CCOP(=O)(OCC)Oc1ccc([N+](=O)[O-])cc1` [Paraoxon], the “inhibition of the metabolism of tazarotenic acid to tazarotenic acid sulfoxide” value (CYP- and FMO-mediated reaction) is “did not inhibit”. Under setting [6], the “inhibition of tazarotene benzoate metabolism to hydroxy tazarotenic acid” value is “inhibited”, the “inhibition of tazarotene metabolism to tazarotenic acid” value was “inhibited” and the “inhibition of tazarotene sulfoxide metabolism to tazarotenic acid sulfoxide” value was “inhibited”. The “inhibition of tazarotene benzoate metabolism to hydroxy tazarotenic acid” value in data set [2] is listed as “inhibited”.

As for `CCOC(=O)c1ccc(C#Cc2ccc3c(c2)C(C)(C)CC(OC(=O)C2CCOCC2)S3)nc1` (stereo not drawn) [Compound 26], the fold induction at 2830 µM stood at 90 in data set [1] (setting [3]), 10 in data set [1] (setting [4]) and 20 in data set [1] (setting [5]).

For `CCOC(=O)c1ccc(C#Cc2ccc3c(c2)C(C)(C)CC(OC(C)=O)S3)nc1` (stereo not drawn) [Compound 17], the fold induction at 2830 µM in data set [1] (setting [3]) is 103 to 180; in data set [1] (setting [4]), 15; in data set [1] (setting [5]) it was 24.

In the case of `CCOC(=O)c1ccc(C#Cc2ccc3c(c2)C(C)(C)C[C@H](OC(=O)c2cccnc2)S3)nc1` [Compound 9, (R)-6-[4,4-dimethyl-2-(pyridine-3-carbonyloxy)thiochroman-6-ylethynyl]nicotinic acid ethyl ester], the fold induction at 2830 µM turned out to be 32 in data set [1] (setting [3]), 5 in data set [1] (setting [4]) and 17 in data set [1] (setting [5]).

`CCOC(=O)c1ccc(C#Cc2ccc3c(c2)C(C)(C)CC(O)S3)nc1` (stereo not drawn) [Compound 14, Ethyl 6-[(2-hydroxy-4,4-dimethyl-3,4-dihydro-2-thiochromen-6-yl)ethynyl]pyridine-3-carboxylate]: the fold induction at 2830 µM stood at 87 in data set [1] (setting [3]), 20 in data set [1] (setting [4]) and 29 in data set [1] (setting [5]).

`CCCCCCCCCCCCCCCC(=O)OC1CC(C)(C)c2cc(C#Cc3ccc(C(=O)OCC)cn3)ccc2S1` (stereo not drawn) [Compound 13]: the fold induction at 2830 µM in data set [1] (setting [3]) came out at 38; in data set [1] (setting [4]) it was 6; in data set [1] (setting [5]), 4.

`CCOC(=O)c1ccc(C#Cc2ccc3c(c2)C(C)(C)C[C@H](OC(=O)c2ccccc2)S3)nc1` [Compound 6, (R)-6-(2-(2-benzoyloxy-4,4-dimethylthiochroman-6-yl)ethynyl)nicotinic acid, ethyl ester]: the fold induction at 2830 µM in data set [1] (setting [3]) came to 20; in data set [1] (setting [4]), 7; in data set [1] (setting [5]), 8.

In the case of `CCOC(=O)c1ccc(C#Cc2ccc3c(c2)C(C)(C)CC(OC(=O)COC)S3)nc1` (stereo not drawn) [Compound 16], the fold induction at 2830 µM in data set [1] (setting [3]) stood at 69; in data set [1] (setting [4]), 9; in data set [1] (setting [5]), 20.

For the compound `CCOc1ccc2ccc(=O)oc2c1` [7-ethoxycoumarin], the “metabolized by human liver microsomes (positive control)” value (initial concentration 10 μM, 0 or 30 minutes) is on record as “as expected”.

Consider `CCOC(=O)c1ccc(C#Cc2ccc3c(c2)C(C)(C)CC(OC(=O)CCCCC(=O)OC)S3)nc1` (stereo not drawn) [Compound 27, Ethyl 6-[(2-monomethyladopyl-4,4-dimethyl-3,4-dihydro-2-thiochromen-6-yl)ethynyl]pyridine-3-carboxylate], for which the fold induction at 2830 µM is 70 in data set [1] (setting [3]), 19 in data set [1] (setting [4]) and 33 to 43 in data set [1] (setting [5]).

As for `CC1(C)CC(=O)Sc2ccc(C#Cc3ccc(C(=O)O)cn3)cc21` [Compound 11, 6-((4,4-dimethyl-2-oxothiochroman-6-yl)ethynyl)nicotinic acid], the fold induction at 2830 µM was determined as 52 in data set [1] (setting [3]), 20 in data set [1] (setting [4]) and 21 in data set [1] (setting [5]).

With `CCOC(=O)c1ccc(C#Cc2ccc3c(c2)C(C)(C)CC(OC(=O)C2CCN(C)CC2)S3)nc1` (stereo not drawn) [Compound 23], the fold induction at 2830 µM was 73 in data set [1] (setting [3]), 19 in data set [1] (setting [4]) and 33 to 43 in data set [1] (setting [5]).

On to `CCOC(=O)c1ccc(C#Cc2ccc3c(c2)C(C)(C)CC(OC(=O)CC)S3)nc1` (stereo not drawn) [Compound 24], for which the results for the fold induction at 2830 µM in data set [1] (setting [3]), in data set [1] (setting [4]) and in data set [1] (setting [5]) were 74, 23 and 33 to 43, respectively.
